1 compound from patent publication US11147792B2, “Inhibitors of microbially induced amyloid” (Axial Therapeutics, Inc, priority 2017, dated 2021) can be followed below.

For assay [1], the system named is αSyn aggregates in brain of Thy1-αSyn mice (ASO). Kind of assay: Brain αSyn aggregates in germ-free ASO mice mono-colonized with WT E. coli, EGCG in drinking water. Format: in vivo, mouse. The note with it: EGCG-treated vs vehicle. How it is done: Germ-free Thy1-αSyn mice (ASO) mono-colonized with WT E. coli at 5-6 weeks of age, and given water alone (Vehicle: Veh) or treated with EGCG ad lib in drinking water (+EGCG). RNA was extracted from fecal pellets and csgA expression quantified by qRT-PCR, relative to rrsA. FIG. 1C is a graph showing fold-change in csgA expression. Motor function was assessed at 15-16 weeks of age by quantifying beam traversal time (FIG. 1D), pole descent time (FIG. 1E), nasal adhesive removal time (FIG. 1F), hindlimb clasping score (FIG. 1G), and wire hang tests (FIG. 1H). Time to cross, time to descent, time to remove, and hindlimb score were lower in the EGCG-treated mice, while time to fall was higher in the EGCG-treated mice compared to vehicle treated control. […]
FIGS. 1L-M show quantification of insoluble αSyn fibrils in the striatum (FIG. 1L) and ventral midbrain (FIG. 1M) by dot blot assay. Thin sections of brain were stained for Iba1 (microglia), 3D cellular reconstructions generated, and morphological characteristics quantified from microglia resident in the striatum (FIG. 1N) and substantia and nigra (FIG. 1O). n=3 (FIGS. 1A, 1B, 1N, 1O), n=8 (FIG. 1C), n=10-11 (FIGS. 1D-I), n=4 (FIGS. 1L-M). […] Data analyzed by one-way ANOVA with Tukey post-hoc test for FIG. 1A, two-tailed Mann-Whitney for FIGs. […]

Assay [2] addresses T1, E. coli CsgA (Escherichia coli, UniProt P28307).
T1 construct: made in house; host or cells: E. coli NEB 3016 slyD::kan, pET11d
Briefly: In vitro ThioflavinT assay of CsgA aggregation. Format: biochemical. The note with it: CsgA at 20 μM, ThT fluorescence at 18 hours. Here is the method: In Vitro ThioflavinT Assay to Determine Effects of Compounds on CsgA Aggregation.
To assess the effects of compounds on aggregation of E. coli CsgA, a cell-free assay was performed using purified CsgA and Thioflavin T. In the assay, histidine-tagged CsgA was over-expressed in E. coli NEB 3016 slyD::kan cells harboring a pET11d vector containing csgA with the sequence for 6 histidine residues added to the C-terminus and without the Sec signal (amino acid 1-22) sequence. To induce over-expression of CsgA, 0.5 mM isopropyl β-D-1-thiogalactopyranoside (“IPTG”) was added to cultures with an optical density at 600 nm (OD600) of 0.8-1, and induced cells were cultured at 37° C. for 1 hour prior to harvest via centrifugation. Cells were lysed under denaturing conditions with 8 M guanidine hydrochloride in 50 mM potassium phosphate buffer pH 7.3, and CsgA was purified via immobilized-metal affinity chromatography by batch purification with Nickel-NTA agarose and a combination of low pressure and gravity flow through a disposable polypropylene column, including washes under low pressure applied manually via application of a syringe plunger to the column with 50 mM potassium phosphate buffer pH 7.3 followed by 12.5 mM imidazole in 50 mM potassium phosphate buffer pH 7.3, and elution by gravity flow with 125 mM imidazole in 50 mM potassium phosphate buffer pH 7.3. Buffers with imidazole were freshly prepared prior to the protein purification. Purified CsgA was passed through a 30 kDa molecular weight cut-off filter and passed through a desalting column. All steps of the CsgA purification in the absence of guanidine hydrochloride were conducted in rapid succession with as little delay as possible. The assay was conducted in 96-well black microplates with 40 μM ThioflavinT, 1% DMSO, CsgA at 20 μM, and compounds at 20 μM. Plates were incubated at 25° C. in a Tecan Nano F200 plate reader with excitation at 438 nm using a 439 nm filter with a bandwidth of 8 nm, and emission at 495 nm with a 490 nm filter with a bandwidth of 10 nm. During the assay, plates were shaken initially for 5 seconds and subsequently for 3 seconds prior to fluorescent readings. Readings were performed every 20 minutes for up to 24 hours. The effect of compounds on CsgA aggregation in the assay was determined with data from 18 hours, following the plateau of the fluorescent signal in the untreated (no compound) control wells containing CsgA. Fluorescence values for each compound with CsgA were first adjusted by subtracting the average fluorescence of the compound in the absence of CsgA. These adjusted values were normalized by dividing them by the average fluorescence in the no-compound (i.e., untreated) control wells containing CsgA […], and the average normalized fluorescence with the compound was expressed as a percentage of the average fluorescence observed in untreated controls.

Molecules are shown by their SMILES. Entries after “also recorded” stand apart in the source; their conditions may differ. Read-outs that look alike come from different tables or passages of the source.

T1 sequence (P28307 23-151): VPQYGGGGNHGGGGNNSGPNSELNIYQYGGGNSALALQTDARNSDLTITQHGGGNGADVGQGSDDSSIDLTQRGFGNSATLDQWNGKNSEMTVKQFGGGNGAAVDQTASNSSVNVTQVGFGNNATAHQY

Usually inhibition stands for the percentage by which the read-out fell short of the control. On to `O=C(O[C@@H]1Cc2c(O)cc(O)cc2O[C@@H]1c1cc(O)c(O)c(O)c1)c1cc(O)c(O)c(O)c1` [EGCG, epigallocatechin gallate], for which, in assay [1], the “αSyn aggregation in striatum and midbrain” value is “preventing αSyn aggregation in both the striatum and midbrain”. Moreover, the “Proteinase K resistant αSyn aggregates in the substantia nigra” value in assay [1] (immunofluorescence microscopy) was “lower; also recorded: Fewer”. In addition, the inhibition at 20 µM in assay [2] (read-out: Inhibition of Aggregation CsgA (compound activity range), compounds at 20 μM) was 30 to 60%; in assay [2] (read-out: Inhibition of Aggregation CsgA, compounds at 20 μM), 56%.
